Data published in US6545002B1 (University of Virginia Patent Foundation, priority 1999, dated 2003).
Like-named read-outs stand apart in the source and are kept apart here.

Key:
rat A1 receptors (rA1) = biological target: T1, rat A1 receptors (rA1) (Rattus norvegicus, UniProt P25099); test: Displacement of [3H]R-PIA binding in rat brain (cerebral cortical) membranes
T1 construct: to A1 receptors from rat cerebral cortical membranes; from tissue; host or cells: rat cerebral cortical (brain) membranes
T1 sequence (P25099 1-326): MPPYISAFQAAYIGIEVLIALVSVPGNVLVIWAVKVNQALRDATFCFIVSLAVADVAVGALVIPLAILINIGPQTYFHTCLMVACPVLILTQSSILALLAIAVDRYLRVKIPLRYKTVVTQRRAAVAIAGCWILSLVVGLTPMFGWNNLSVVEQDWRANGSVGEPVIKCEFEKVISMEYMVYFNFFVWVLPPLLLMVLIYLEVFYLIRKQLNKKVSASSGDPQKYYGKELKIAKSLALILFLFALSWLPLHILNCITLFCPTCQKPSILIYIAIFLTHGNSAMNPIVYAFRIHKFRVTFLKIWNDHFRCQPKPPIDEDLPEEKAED
Procedure: (§1) Bruns, R. F. et al., Naunyn-Schmiedeberg's Arch. […] Binding of [^3H]R-N^6-phenylisopropyladenosine. Schwabe, U. et al., Naunyn-Schmiedeberg's Arch. […] (Dupont NEN, Boston, Mass.) to A2A receptors from rat striatal membranes was performed as described. […] All non-radioactive compounds were initially dissolved in DMSO, and diluted with buffer to the final concentration, where the amount of DMSO never exceeded 2%. Incubations were terminated by rapid filtration over Whatman GF/B filters, using a Brandell cell harvester (Brandell, Gaithersburg, Md.). The tubes were rinsed three times with 3 mL buffer each.
(§2) At least six different concentrations of competitor, spanning 3 orders of magnitude adjusted appropriately for the IC50 of each compound, were used. IC50 values, calculated with the nonlinear regression method implemented in (Graph-Pad Prism, San Diego, Calif.), were converted to apparent Ki values as described. Linden, J., J. Cycl. Nucl.

rat A2A receptors (rA2A) = biological target: T2, rat A2A receptors (rA2A) (Rattus norvegicus, UniProt P30543); test: Displacement of [3H]CGS 21680 binding in rat striatal membranes
T2 construct: to A2A receptors from rat striatal membranes was performed as described; from tissue; host or cells: rat striatal membranes
T2 sequence (P30543 whole entry): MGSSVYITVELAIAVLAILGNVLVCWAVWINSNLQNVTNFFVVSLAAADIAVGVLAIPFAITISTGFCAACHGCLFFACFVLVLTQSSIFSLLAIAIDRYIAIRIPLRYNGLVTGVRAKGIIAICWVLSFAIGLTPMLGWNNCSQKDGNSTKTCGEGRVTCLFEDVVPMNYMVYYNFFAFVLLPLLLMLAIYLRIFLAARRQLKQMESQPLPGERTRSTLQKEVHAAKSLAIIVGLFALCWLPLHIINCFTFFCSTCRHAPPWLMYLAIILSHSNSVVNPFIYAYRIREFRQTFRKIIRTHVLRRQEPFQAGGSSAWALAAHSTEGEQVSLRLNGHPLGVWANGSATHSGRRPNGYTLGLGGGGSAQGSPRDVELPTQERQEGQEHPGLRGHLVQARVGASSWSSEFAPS
Procedure: as §1, §2

human A3 receptors (hA3) [1] = biological target: T3, human A3 receptors (hA3) (Homo sapiens, UniProt P0DMS8); test: Displacement of [125I]AB-MECA binding at human A3 receptors expressed in HEK-293 cells (Table 4)
T3 construct: expressed in transfected cells; host or cells: HEK-293
T3 sequence (P0DMS8 1-318): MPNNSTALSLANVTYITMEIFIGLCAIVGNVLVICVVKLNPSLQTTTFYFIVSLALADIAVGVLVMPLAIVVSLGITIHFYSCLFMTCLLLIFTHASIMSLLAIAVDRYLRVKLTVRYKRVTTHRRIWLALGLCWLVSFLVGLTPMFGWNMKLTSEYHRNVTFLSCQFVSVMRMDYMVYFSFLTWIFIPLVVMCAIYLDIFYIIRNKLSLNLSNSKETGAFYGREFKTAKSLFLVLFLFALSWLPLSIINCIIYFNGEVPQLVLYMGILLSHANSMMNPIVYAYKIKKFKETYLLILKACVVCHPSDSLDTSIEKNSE

[2] = biological target: T4, human A2B receptors (hA2B) (Homo sapiens, UniProt P29275); test: Radioligand binding ([125I]ABOPX / [3H]ZM241385) at human A2B receptors expressed in HEK-293 cells
T4 construct: expressed in transfected cells; host or cells: HEK-293 (HEK-A2B, G418-selected)
T4 sequence (P29275 1-332): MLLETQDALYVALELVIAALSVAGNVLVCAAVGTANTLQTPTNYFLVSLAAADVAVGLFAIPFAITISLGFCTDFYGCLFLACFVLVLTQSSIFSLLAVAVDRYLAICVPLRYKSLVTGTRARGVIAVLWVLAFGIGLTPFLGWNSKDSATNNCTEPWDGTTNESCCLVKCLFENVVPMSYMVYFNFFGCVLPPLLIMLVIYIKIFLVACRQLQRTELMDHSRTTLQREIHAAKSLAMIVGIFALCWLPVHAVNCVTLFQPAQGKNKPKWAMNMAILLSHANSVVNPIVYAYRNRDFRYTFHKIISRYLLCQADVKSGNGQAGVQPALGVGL

[3] = biological target: recombinant human A2A receptors (hA2A) (Homo sapiens, UniProt P29274); test: Radioligand binding (125I-ZM241385) at recombinant human A2A receptors in HEK-293 cells
Chain of recombinant human A2A receptors (hA2A) (P29274 whole entry): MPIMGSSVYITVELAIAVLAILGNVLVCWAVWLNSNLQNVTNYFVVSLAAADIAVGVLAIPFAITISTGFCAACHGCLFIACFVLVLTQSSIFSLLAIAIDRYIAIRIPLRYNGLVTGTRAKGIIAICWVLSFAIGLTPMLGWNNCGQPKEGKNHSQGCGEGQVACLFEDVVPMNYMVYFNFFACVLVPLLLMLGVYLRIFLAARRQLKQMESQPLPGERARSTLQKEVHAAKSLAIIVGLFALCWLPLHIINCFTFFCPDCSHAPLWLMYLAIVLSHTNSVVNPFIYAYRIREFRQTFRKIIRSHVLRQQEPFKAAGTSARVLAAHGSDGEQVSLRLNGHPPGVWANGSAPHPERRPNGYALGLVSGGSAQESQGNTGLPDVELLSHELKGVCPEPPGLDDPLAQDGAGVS
Procedure: (§3) The potency of the xanthine derivatives at human A2B receptors was evaluated using two binding assays. […] In order to determine selectivity, the xanthines were evaluated using standard binding assays at A1, A2A, and A3 receptors.

[4] = biological target: T5, recombinant human A1 receptors (hA1) (Homo sapiens, UniProt P30542); test: Radioligand binding ([3H]CPX) at recombinant human A1 receptors in HEK-293 cells
T5 sequence (P30542 1-326): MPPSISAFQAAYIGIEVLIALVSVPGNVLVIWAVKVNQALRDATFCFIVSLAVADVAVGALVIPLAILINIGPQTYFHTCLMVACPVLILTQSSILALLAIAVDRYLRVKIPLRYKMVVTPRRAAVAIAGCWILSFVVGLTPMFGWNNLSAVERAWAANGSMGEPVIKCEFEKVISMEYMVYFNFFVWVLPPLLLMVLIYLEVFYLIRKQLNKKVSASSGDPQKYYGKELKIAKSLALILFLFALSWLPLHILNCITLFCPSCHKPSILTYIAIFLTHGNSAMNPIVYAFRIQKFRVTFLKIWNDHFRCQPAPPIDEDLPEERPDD
Procedure: as §3

human A3 receptors (hA3) [5] = biological target: T3, human A3 receptors (hA3); test: Displacement of [125I]ABA binding at human A3 receptors expressed in HEK-293 cells
[6] = Table 2, read-out: hA2B Ki or IC50
[7] = read-out: hA2A Ki or IC50, Table 2
[8] = Table 2, read-out: rA1 Ki or IC50
[9] = Table 2, read-out: rA2A Ki or IC50
[10] = read-out: hA1 Ki or IC50, Table 2
[11] = Table 2, read-out: hA3 Ki or IC50
[12] = read-out: Ki value at human A2B receptors

SMILES	melting point	Ki [2, 6]	Ki [3, 7]	Ki (rat A1 receptors (rA1); [8])	Ki (rat A2A receptors (rA2A); [9])	Ki [4, 10]	Ki (human A3 receptors (hA3) [5]; [11])	selectivity for human A2B versus human A1 receptors [2]	Ki [2, 12]	further results
CCCn1c(=O)c2[nH]c(-c3ccc(OCC(=O)NN)cc3)nc2n(CCC)c1=O [Compound 4f]										Ki (rat A1 receptors (rA1); Table 4, read-out: rA1 Ki): 16 ± 0.5 nM; Ki (rat A2A receptors (rA2A); Table 4, read-out: rA2A Ki): 63.8 ± 21.3 nM; Ki (human A3 receptors (hA3) [1]): 498 ± 139 nM
CCCn1c(=O)c2[nH]c(-c3ccc(OCC(=O)Nc4ccc(C(=O)OC)cc4)cc3)nc2n(CCC)c1=O [Compound 21, 8-[4-[((4-Methoxycarbonyl)phenylcarbamoylmethyl)oxy]phenyl]-1,3-di-(n-propyl)xanthine]	> 310 °C	3.93 ± 1.35 nM	3100 nM	38.4 ± 3.9 nM	541 ± 128 nM	225 ± 9 nM	363 ± 148 nM			
CCCn1c(=O)c2[nH]c(-c3ccc(OCC(=O)Nc4ccc([N+](=O)[O-])cc4)cc3)nc2n(CCC)c1=O [Compound 28, 8-[4-[((4-Nitro)phenylcarbamoylmethyl)oxy]phenyl]-1,3-di-(n-propyl)xanthine]	307 °C		70 ± 10.7 nM	13.1 ± 3.9 nM	1180 nM	57 ± 3.1 nM	138 ± 17.1 nM	35 fold	1.52 nM	
CCCn1c(=O)c2[nH]c(-c3ccc(OCC(=O)Nc4ccc(C(F)(F)F)cc4)cc3)nc2n(CCC)c1=O [Compound 29, 8-[4-[((4-Trifluoromethyl)phenylcarbamoylmethyl)oxy]phenyl]-1,3-di-(n-propyl)xanthine]	> 310 °C		238 ± 28 nM	44.6 ± 6.5 nM	917 ± 258 nM	61.2 ± 8.2 nM	213 ± 94 nM		2.14 nM	
CCCn1c(=O)c2[nH]c(-c3ccc(OCC(=O)Nc4ccc(I)cc4)cc3)nc2n(CCC)c1=O [Compound 33, 8-[4-[((4-Iodo)phenylcarbamoylmethyl)oxy]phenyl]-1,3-di-(n-propyl)xanthine]	> 310 °C		5140 nM	15.7 ± 4.2 nM	152 ± 47 nM	293 ± 67 nM	1270 nM	140 fold	2.13 nM	selectivity for human A2B versus human A2A receptors [2]: 2400 fold; selectivity for human A2B versus human A3 receptors [2]: 600 fold

Continued, in another order:

melting point	Ki [2, 6]	Ki [3, 7]	Ki (rat A1 receptors (rA1); [8])	Ki (rat A2A receptors (rA2A); [9])	Ki [4, 10]	Ki (human A3 receptors (hA3) [5]; [11])	SMILES	selectivity for human A2B versus human A1 receptors [2]	Ki [2, 12]	further results
298 °C	2.22 ± 0.19 nM	16.6 ± 3.6 nM	2.72 ± 0.51 nM	988 ± 518 nM	17.9 ± 4.5 nM	391 ± 147 nM	CCCn1c(=O)c2[nH]c(-c3ccc(OCC(=O)Nc4ccc(F)cc4)cc3)nc2n(CCC)c1=O [Compound 30, 8-[4-[((4-Fluoro)phenylcarbamoylmethyl)oxy]phenyl]-1,3-di-(n-propyl)xanthine]			selectivity for human A2B versus rat A1 receptors [2]: 1 fold
309 °C	2.47 ± 0.71 nM	187 ± 38 nM	6.35 ± 1.47 nM	995 ± 550 nM	49.7 ± 14.2 nM	1870 nM	CCCn1c(=O)c2[nH]c(-c3ccc(OCC(=O)Nc4ccc(Cl)cc4)cc3)nc2n(CCC)c1=O [Compound 31, 8-[4-[((4-Chloro)phenylcarbamoylmethyl)oxy]phenyl]-1,3-di-(n-propyl)xanthine]			
> 310 °C	2.35 ± 0.01 nM	1640 nM	7.46 ± 2.66 nM	221 ± 36 nM	73.5 ± 23.3 nM	2300 nM	CCCn1c(=O)c2[nH]c(-c3ccc(OCC(=O)Nc4ccc(Br)cc4)cc3)nc2n(CCC)c1=O [Compound 32, 8-[4-[((4-Bromo)phenylcarbamoylmethyl)oxy]phenyl]-1,3-di-(n-propyl)xanthine]			
302 to 303 °C							CCCn1c(=O)c2[nH]c(-c3ccc(/C=C/C(=O)NN4C(=O)C(C)=C(C)C4=O)cc3)nc2n(CCC)c1=O [Compound 34, 8-(4-(2-Carboxy-trans-vinyl)phenyl)-1,3-di-(n-propyl)xanthine N′,N′-[(1,2-Dimethyl)maleyl]hydrizide]			Ki ([2]; Table 3, read-out: hA2B Ki or IC50): 16.7 ± 3 nM; Ki ([3]; read-out: hA2A Ki, values marked (h), Table 3): 223 ± 55 nM; Ki (rat A1 receptors (rA1); Table 3, read-out: rA1 Ki or IC50): 3.94 ± 1.2 nM; Ki (rat A2A receptors (rA2A); Table 3, read-out: rA2A Ki or IC50): 406 ± 105 nM; Ki ([4]; read-out: hA1 Ki, values marked (h), Table 3): 105 ± 5 nM; Ki (human A3 receptors (hA3) [5]; Table 3, read-out: hA3 Ki or IC50): 31 ± 3.1 nM
> 310 °C							CCCn1c(=O)c2[nH]c(-c3ccc(OCC(=O)NN4C(=O)C(C)=C(C)C4=O)cc3)nc2n(CCC)c1=O [Compound 47, 8-[4-[(Carboxymethyl)oxy]phenyl]-1,3-di-(n-propyl)xanthine N,N-[(1,2-Dimethyl)maleyl]hydrazide]	160 fold	19 nM	selectivity for human A2B versus human A2A receptors [2]: 100 fold; selectivity for human A2B versus human A3 receptors [2]: 35 fold; hA1/hA2B ([2]; Table 1, Ki ratio): 110; hA2A/hA2B ([2]; Table 1, Ki ratio): 74; hA3/hA2B ([2]; Table 1, Ki ratio): 25; Ki ([2]; Table 1, [125I]ABOPX, HEK-293, read-out: hA2B Ki or IC50): 26.6 ± 4 nM; rA1/hA2B ([2]; Table 4, Ki ratio): 0.57; Ki ([2]; Table 4, footnote a: [125I]-ABOPX, read-out: hA2B Ki (value marked ^a) (converted)): 33.8 nM; Ki ([2]; Table 4, unmarked value, first of two binding assays, read-out: hA2B Ki): 19.4 ± 6.2 nM; Ki ([3]; read-out: hA2A Ki, values marked (h), Table 1, recombinant human A2A, HEK 293): 1970 nM; Ki (rat A1 receptors (rA1); Table 4, read-out: rA1 Ki): 11.1 ± 2.4 nM; Ki (rat A2A receptors (rA2A); Table 4, read-out: rA2A Ki): 126 ± 41 nM; Ki ([4]; read-out: hA1 Ki, values marked (h)^a, Table 4, vs [3H]CPX, HEK-293): 3030 nM; Ki (human A3 receptors (hA3) [5]; Table 4, footnote a: [125I]ABA, read-out: hA3 Ki (value marked ^a)): 670 ± 154 nM
